Square brackets hold non-standard residues; d marks the D form. Ends that are not written are not given here. Peptide text beside a SMILES is read from it.
Experiments:
[1] = Solubility / visual appearance in water, PBS or urea-PBS; format: physicochemical
From the text: To attach the peptides to PEG, we selected a thiol-maleimide reaction[43,44] due to its efficiency under mild conditions (Fig. 1a). Therefore, we prepared cysteine-terminated L- and […], or […] and […]8 ^†), for conjugation to maleimide-functionalized 4-arm PEG. […] We note that […] peptides are only partially soluble and form a white dispersion in the 7 M urea 1× PBS solution (Fig. S10 ^†). […] In 1× PBS, while 1.5% (w/v) unconjugated KYFIL forms β-sheets, the conjugates are soluble and we see no evidence of β-sheet formation by infrared (IR) spectroscopy even at 15% ([…] ^†), corresponding to a peptide equivalent concentration of ∼2% (w/v), which exceeds the peptide concentrations in the 1.5% (w/v) formulations of peptide alone. As noted in our previous report on unconjugated KYFIL,[20] we used IR here for secondary structure determination rather than CD because the high peptide concentrations and the presence of salt that promote β-sheet formation also complicate CD spectra acquisition by saturating the detector. […] Moreover, the absorbances are more prominent at higher concentrations (Fig. 2b), signifying the relationship between secondary structure and hydrogel formation.

Proteinase K = biological target: T1, Proteinase K (Parengyodontium album, UniProt P06873); conditions: unconjugated KYFIL peptides; cited from earlier work
T1 construct: purchased Sigma-Aldrich
Experimental: Given the potential of peptide stereocomplexes to prolong hydrogel lifetime due to enhanced proteolytic stability, we were interested to learn whether the KYFIL stereocomplex cross-links boost the proteolytic stability of polymeric hydrogels. In our prior study with unconjugated KYFIL stereocomplexes, we incubated l-, 1 : 1 L : D-, and D-KYFIL in Proteinase K, an enzyme that is predicted to cleave L-KYFIL between the Y–F, F–I, and I–L residues.[57] We found more than 90% intact peptide in the 1 : 1 L : D-peptide mixtures after incubation with Proteinase K for 72 h, while only ∼35% L-KYFIL rema ...

T1 sequence (P06873 106-384): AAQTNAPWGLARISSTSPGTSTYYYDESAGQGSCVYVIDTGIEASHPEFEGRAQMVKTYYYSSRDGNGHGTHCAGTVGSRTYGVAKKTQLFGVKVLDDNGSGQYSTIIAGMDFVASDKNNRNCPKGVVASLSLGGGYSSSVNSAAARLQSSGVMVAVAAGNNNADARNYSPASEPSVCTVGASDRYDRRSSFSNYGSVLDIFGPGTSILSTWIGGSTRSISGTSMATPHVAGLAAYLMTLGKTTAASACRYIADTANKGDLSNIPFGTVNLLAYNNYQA

| solubility in water (in words) [1] | Molecule | intact peptide after incubation with Proteinase K for 72 h (Proteinase K) [%] |
| --- | --- | --- |
| soluble | CC[C@@H](C)[C@@H](NC(=O)[C@@H](Cc1ccccc1)NC(=O)[C@@H](Cc1ccc(O)cc1)NC(=O)[C@H](N)CCCCN)C(=O)N[C@H](CC(C)C)C(=O)N[C@H](CS)C(N)=O [D-KYFILC] (H-[dK][dY][dF][dI][dL][dC]-NH2) |  |
| soluble | KYFILC-NH2 [L-KYFILC] |  |
|  | L-KYFIL [unconjugated L-peptide KYFIL of the authors' prior study] | ~35 |
